The values that follow come from PMC9879200, “Dual-target ligand discovery for Alzheimer’s disease: triphenylphosphoranylidene derivatives as inhibitors of acetylcholinesterase and β-amyloid aggregation” (Journal of Enzyme Inhibition and Medicinal Chemistry, 2023).

For series [1], the target named is T1, AChE (Homo sapiens, UniProt P22303).
T1 construct: purchased Bioassays System (BioAssay Systems) IACE-100
Kind of series: In vitro AChE inhibition assay (improved Ellman spectrophotometric method). The format is biochemical. From the text:
(§1) For AChE and BuChE inhibition experiments, Ellman et al. method’s was applied with a few minor adjustments. According to the manufacturer’s recommendations, the QuantiChromTM AChE Inhibitor Screening Kit (IACE-100), Bioassays System, and the Cholinesterase (ChE) Activity Assay Kit, LifeSpan BioSciences, Inc., USA, were used to measure the inhibition of AChE and BuChE, respectively. […] The relationship between product colour and enzyme activity after inhibition is established. Substrates included butyrylthiocholine iodide and acetylthiocholine iodide.

Series [2] deals with scopolamine-induced memory impairment in mice. The series is described as follows: Y-maze test, scopolamine-induced amnesia model. The format is in vivo.
Procedure: In order to test potential anticholinergic medication candidates, the in vivo scopolamine model was employed to cause memory impairment in mice. Scopolamine can inhibit the cholinergic system by antagonising the muscarinic receptor[47].
Animal working memory is assessed using the hippocampal-dependent Y-maze test. Working memory is measured using the spontaneous alternation score[48].
In the current investigation, adult Swiss Albino mice (8–10 weeks old, weighing 25–30 g) from the National Research Centre were employed. For 1 week, animals were acclimated in a room with constant illumination, humidity, and temperature (22 °C ± 1 °C, 60%, and 12 h of light/dark cycle). Throughout the experiment, unlimited amounts of food and water were given. Mice were kept in open, opaque propylene cages with good ventilation and wide access to a variety of forages.
(§4) Healthy mice were randomised into four groups of six mice each after a 1-week adaption period, at random, as follows: Group 1 is the control group, which received saline solution with 10% Tween 80. […] Following the injection of scopolamine, the behavioural study will be examined 30 min later.
In the Y-maze, a test of working memory, the animals’ capacity for spontaneous alternation was evaluated[49]. Three equally spaced horizontal arms measuring 120°, 45 cm long, and 16 cm high make up the Y-maze. Each mouse was put into one of the three arms of the maze and given free rein to wander from arm to arm. Both the number and order of arm inputs were recorded. The spontaneous alternation is derived from the following equation as a measure of memory performance: (Alternations/Total Arm Entries) − 2 × 100 = percent alternation. The student’s t-test was used to assess the data.
Series [3] concerns scopolamine-induced cognitive impairment. The series is described as follows: Step-down passive avoidance test, scopolamine-induced amnesia model. Particulars: mice; for transfer latency time (TLT), passive avoidance test: 1 mg/kg orally 30 min before scopolamine 3 mg/kg intraperitoneal. The format is in vivo.
Procedure: In order to test potential anticholinergic medication candidates, the in vivo scopolamine model was employed to cause memory impairment in mice.
For 1 week, animals were acclimated in a room with constant illumination, humidity, and temperature (22 °C ± 1 °C, 60%, and 12 h of light/dark cycle). Throughout the experiment, unlimited amounts of food and water were given. Mice were kept in open, opaque propylene cages with good ventilation and wide access to a variety of forages.
as §4
The passive avoidance test was conducted in a device that had two independent compartments split by a sliding door. There was a connection between the illuminated chamber and a dark compartment with an electrifiable grid floor, which was free of electric impulses. Each mouse was initially placed in the lit chamber so that it could become accustomed to it. The sliding door is then opened, allowing access to the enclosed, gloomy space. The door was shut once the animal had entered the chamber entirely, and it was then shocked with an electric shock lasting two seconds (24 V, 0.5 mA). The latency time to enter the dark container was measured to gauge working memory (Training trial). Twenty-four hours after the training trial, a test trial was carried out without application of the electric foot shock[50].
Series [4] concerns the target T1, AChE. Kind of series: Kinetic study of AChE inhibition (Lineweaver-Burk and Dixon plots). In kind it is biochemical.
Excerpt: Figure 5.
as §1

The subject of series [5] is AChE (IC50 in the denominator). The series is described as follows: SH-SY5Y neuroblastoma cell toxicity (MTT assay). Particulars: human, SH-SY5Y neuroblastoma cells. The method, then: (§2) The cell viability was determined through using MTT assay.
(§3) The American Type Culture Collection provided the cells (Rockville, MD). […] The chemical was applied to the cells at various doses ([…]) for 48 h. The MTT colorimetric assay’s described methodology was then used[57].

Series [6] is described as follows: SH-SY5Y neuroblastoma cell toxicity (MTT assay). The note with it: human, SH-SY5Y neuroblastoma cells. The protocol: as §2, §3
Another series has as its target T2, MMP-2 (Homo sapiens, UniProt P08253).
T2 construct: purchased Abcam ab139447
T2 sequence (P08253 110-660): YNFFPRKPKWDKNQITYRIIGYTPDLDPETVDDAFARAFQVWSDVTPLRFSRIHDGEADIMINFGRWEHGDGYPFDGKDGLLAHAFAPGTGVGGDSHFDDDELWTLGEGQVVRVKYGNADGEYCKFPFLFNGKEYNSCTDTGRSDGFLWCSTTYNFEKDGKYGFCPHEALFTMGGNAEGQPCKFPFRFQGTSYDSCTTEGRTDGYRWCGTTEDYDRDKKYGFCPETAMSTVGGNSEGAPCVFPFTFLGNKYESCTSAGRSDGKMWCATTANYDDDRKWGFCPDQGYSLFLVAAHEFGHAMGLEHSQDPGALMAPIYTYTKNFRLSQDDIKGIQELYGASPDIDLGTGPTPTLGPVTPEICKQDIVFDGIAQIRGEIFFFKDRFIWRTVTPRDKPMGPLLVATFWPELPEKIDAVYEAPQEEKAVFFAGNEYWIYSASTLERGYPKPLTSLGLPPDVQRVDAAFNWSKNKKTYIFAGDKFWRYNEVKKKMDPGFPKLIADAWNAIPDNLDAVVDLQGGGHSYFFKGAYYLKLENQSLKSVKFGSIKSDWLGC
The series is described as follows: MMP-2 inhibitor screening assay (fluorometric, FRET peptide). In kind it is biochemical. From the text:
Matrix Metalloproteinase-2 (MMP-2) is known for its impact on neurological disorders as AD[44–46].
This assay kit uses a fluorescence resonance energy transfer (FRET) peptide as a generic MMP activity indicator. In the intact FRET peptide, the fluorescence of one part is quenched by another. After cleavage into two separate fragments by MMPs, the fluorescence is recovered.

Another series deals with T3, BuChE enzyme (Homo sapiens, UniProt P06276).
T3 construct: purchased LifeSpan BioSciences, Inc., USA
T3 sequence (P06276 29-602): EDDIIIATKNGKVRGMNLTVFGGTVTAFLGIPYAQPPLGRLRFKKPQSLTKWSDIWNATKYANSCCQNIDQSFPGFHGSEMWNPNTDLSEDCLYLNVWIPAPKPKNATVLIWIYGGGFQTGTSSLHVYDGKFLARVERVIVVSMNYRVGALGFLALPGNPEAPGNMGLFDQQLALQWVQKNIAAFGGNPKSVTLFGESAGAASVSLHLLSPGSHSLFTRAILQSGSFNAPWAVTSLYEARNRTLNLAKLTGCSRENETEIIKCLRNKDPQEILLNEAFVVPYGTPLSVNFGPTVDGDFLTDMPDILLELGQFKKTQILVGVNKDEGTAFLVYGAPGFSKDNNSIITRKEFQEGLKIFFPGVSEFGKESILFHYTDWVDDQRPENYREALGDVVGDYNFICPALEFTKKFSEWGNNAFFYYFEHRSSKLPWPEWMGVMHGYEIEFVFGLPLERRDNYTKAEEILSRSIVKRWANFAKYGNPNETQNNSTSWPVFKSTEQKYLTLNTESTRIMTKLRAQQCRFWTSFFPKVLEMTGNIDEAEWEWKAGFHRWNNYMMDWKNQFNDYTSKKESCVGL
The series is described as follows: In vitro BuChE inhibition assay (modified Ellman spectrophotometric method). In kind it is biochemical. The protocol: This was carried out by using the modified Ellman spectrophotometric method.
as §1

The target of the next series is T4, Aβ1–42 (Homo sapiens, UniProt P05067).
T4 construct: the beta amyloid 1–42 (Aβ42) Ligand Screening Assay Kit (Fluorometric) (K570-100); purchased BioVision K570-100
T4 sequence (P05067 672-713 limits assumed): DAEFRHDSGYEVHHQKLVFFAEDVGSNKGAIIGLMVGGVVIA
Kind of series: Self-induced Aβ1–42 aggregation inhibition assay (Thioflavin T, fluorometric). Particulars: Thioflavin T fluorescence; read-out: Self-induced Aβ1–42 aggregation IC50 (nM) ± SD. The format is biochemical.

The mark [7] stands for this setting: read-out: AChE IC50 (nM) ± SD, average of triplicate determination, Ellman method, pH 7.5.

“Also recorded” adds a separate entry of the source. Read-outs that look alike come from different tables or passages of the source.

T1 sequence (P22303 32-614): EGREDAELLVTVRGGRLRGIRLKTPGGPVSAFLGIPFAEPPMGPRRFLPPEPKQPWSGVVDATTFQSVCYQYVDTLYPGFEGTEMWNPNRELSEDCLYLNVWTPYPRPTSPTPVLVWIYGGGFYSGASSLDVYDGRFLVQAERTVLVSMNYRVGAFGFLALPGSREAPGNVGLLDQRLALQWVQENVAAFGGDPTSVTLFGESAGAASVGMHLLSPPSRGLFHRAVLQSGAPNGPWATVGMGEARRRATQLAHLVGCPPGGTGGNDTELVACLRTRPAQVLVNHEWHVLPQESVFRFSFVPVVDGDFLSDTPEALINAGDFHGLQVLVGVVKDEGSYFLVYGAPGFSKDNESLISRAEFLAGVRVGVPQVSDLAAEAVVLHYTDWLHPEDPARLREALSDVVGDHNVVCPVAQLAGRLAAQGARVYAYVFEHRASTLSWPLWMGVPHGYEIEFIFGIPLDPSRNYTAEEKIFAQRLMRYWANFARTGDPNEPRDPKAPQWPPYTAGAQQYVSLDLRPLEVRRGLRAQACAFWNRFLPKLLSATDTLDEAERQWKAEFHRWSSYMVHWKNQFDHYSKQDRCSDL

With `CCc1c(CC)c(=P(c2ccccc2)(c2ccccc2)c2ccccc2)c1=O` [C00008], the concentration for half-maximal inhibition (IC50) at AChE [1] (setting [7]) amounted to 249 ± 10.4 nM. Take `C[Si]1(Cl)C=C/C(=N\c2ccccc2)C1=P(c1ccccc1)(c1ccccc1)c1ccccc1` (stereo not shown) [C00001]: at AChE [1], the IC50 was 206 ± 7.33 nM. For `CCc1c(CC)c(=P(c2ccccc2)(c2ccccc2)c2ccccc2)c1=O` [13b, 2,3-Diethyl-4-(triphenylphosphoranylidene)cyclobut-2-enone], at AChE [1], inhibition was half-maximal at 249 nM (IC50). With `C=CC(C(=O)c1ccccc1)=P(c1ccccc1)(c1ccccc1)c1ccccc1` [8d, 1-Phenyl-2-(triphenylphosphoranylidene)but-3-en-1-one], the half-inhibitory concentration (IC50) against AChE [1] stood at 426 nM. Same read-out and setting: for `O=c1c(-c2ccccc2)c(-c2ccccc2)c1=P(c1ccccc1)(c1ccccc1)c1ccccc1` [11b, 2,3-Diphenyl-4-(triphenylphosphoranylidene)cyclobut-2-enone] the value was 508 nM.

For `CN1[C@@H]2C[C@@H](OC(=O)[C@H](CO)c3ccccc3)C[C@H]1[C@@H]1O[C@@H]12` [Scopolamine], the “Y-maze test, percent alternations, scopolamine model group” value in series [2] (mice, scopolamine 3 mg/kg intraperitoneal alone, control group 82.1) worked out at 51.2%. Moreover, the “transfer latency time (TLT), passive avoidance test, scopolamine-treated group” value in series [3] (scopolamine 3 mg/kg intraperitoneal alone) was determined as 27.2 s. On AChE [1], `c1ccc(N=c2c(-c3ccccc3)c(-c3ccccc3)c2=P(c2ccccc2)(c2ccccc2)c2ccccc2)cc1` [11a, N-(2,3-diphenyl-4-(triphenylphosphoranylidene)cyclobut-2-en-1-ylidene)aniline] had an IC50 of 185 nM. For the molecule `C=CC(C(C)=O)=P(c1ccccc1)(c1ccccc1)c1ccccc1` [8c, 3-(Triphenylphosphoranylidene)pent-4-en-2-one], the “type of AChE inhibition” value at AChE [4] (Lineweaver-Burk plot, Vmax and Km patterns) is recorded as “uncompetitively; also recorded: uncompetitive”. Besides, the Ki on AChE [4] (estimate from Dixon plot, read-out: inhibitory constant, Ki) is 15.7 nM. In addition, the selectivity ratio at 48 h in series [5] came out at 75.3. Further, in series [6], half-maximal cytotoxicity (CC50 at 48 h) was put at 7310 ± 260 nM. The IC50 on MMP-2 is 724 ± 16.5 nM; on BuChE enzyme it was 84.8 ± 2.91 nM; against AChE [1], 97 nM; on Aβ1–42, 302 ± 11.4 nM. Moreover, the Selectivity index at BuChE enzyme (Selectivity index = (BuChE IC50)/(AChE IC50)) came to 0.87. Also, the “Y-maze test, percent alternations” value in series [2] (mice, 1 mg/kg orally 30 min before scopolamine 3 mg/kg intraperitoneal) turned out to be 83.9%. Further, the “transfer latency time (TLT), passive avoidance test” value in series [3] was found to be 45.2 s. At AChE [1], `C=CC(C(=O)OC)=P(c1ccccc1)(c1ccccc1)c1ccccc1` [8b, Methyl 2-(triphenylphosphoranylidene)but-3-enoate] displayed an IC50 of 158 nM. On AChE [1], `C[Si](C)(C)c1c([Si](C)(C)C)c(=P(c2ccccc2)(c2ccccc2)c2ccccc2)c1=O` [compound 15, 2,3-Bis(trimethylsilyl)-4-(triphenylphosphoranylidene)cyclobut-2-enone] displayed an IC50 of 113 nM. The molecule `C[Si]1(Cl)C=CC(=O)C1=P(c1ccccc1)(c1ccccc1)c1ccccc1` (stereo not shown) [5b, 1-Chloro-1-methyl-2-(triphenylphosphoranylidene)-1H-silol-3(2H)-one] displayed an IC50 on AChE [1] of 345 nM. With `COc1cc2c(cc1OC)C(=O)C(CC1CCN(Cc3ccccc3)CC1)C2` (stereo not shown) [Donepezil], in series [2] (1 mg/kg), the “Y-maze test, percent alternations” value was 80.7%. For the same molecule, the “transfer latency time (TLT), passive avoidance test” value in [3] came to 44.0 s.

Consider `c1ccc(/N=c2/c(-c3ccccc3)c(-c3ccccc3)c2=P(c2ccccc2)(c2ccccc2)c2ccccc2)cc1` [C00002], for which inhibition at AChE [1] was half-maximal at 185 ± 9.22 nM (IC50). The same measure, in the same setting: for `CCc1c(CC)/c(=N/c2ccccc2)c1=P(c1ccccc1)(c1ccccc1)c1ccccc1` [C00006] the value was 507 ± 22.1 nM. Regarding `C[Si](C)(C)c1c([Si](C)(C)C)c(=P(c2ccccc2)(c2ccccc2)c2ccccc2)c1=O` [C00010], the concentration for half-maximal inhibition (IC50) at AChE [1] (setting [7]) came out at 113 ± 4.82 nM. `C[Si]1(Cl)C=CC(=Nc2ccccc2)C1=P(c1ccccc1)(c1ccccc1)c1ccccc1` (stereo not shown) [5a, N-(1-chloro-1-methyl-2-(triphenylphosphoranylidene)-1H-silol-3(2H)-ylidene)aniline]: the IC50 on AChE [1] worked out at 206 nM.
